Assays:
[1] = system: U87 cells (GBM cells); experiment: MTT assay of cell viability following treatment with gossypol; type: cell-based; settings: 0.5, 1, 5, 10 and 50 μM gossypol, 72 hours, FIG. 1
Protocol: U87 cells (GBM cells) were treated with 0.5, 1, 5, 10 and 50 μM of gossypol for 72 hours (FIG. 1).

[2] = system: U87-luc cells; experiment: Orthotopic xenograft model (U87-luc cells transplanted into the cerebrum), bioluminescence and survival; type: in vivo, male athymic nude mice; settings: 5 weeks after transplantation; oral gossypol 40 mg/kg and/or phenformin 100 mg/kg each day, FIG. 7
Protocol: Gossypol and phenformin to be used in an animal study were dissolved in DMSO and PBS, respectively. A composition for co-administration of gossypol and phenformin was dissolved in PBS containing 10 wt % DMSO and 10 wt % cremophor.
For preparation of orthotopic xenograft models, 4-8-week-old male athymic nude mice (Central Lab., Korea) were used. For stabilization, the mice were maintained in a sterilized environment for at least one week before use in the experiment while they were fed with a sufficient diet. […] First, the mice were anesthetized by intraperitoneal injection of 30 mg/kg of Zoletil and 10 mg/kg of Xylazine, and 2×10^5 U87-luc cells were transplanted into the right frontal lobe of the cerebrum to a depth of 4.5 mm by use of a Hamilton syringe. The U87-luci cells were injected into five mice of the same group at the same time at a rate of 0.5 l/minute by use of a micro-infusion syringe pump. Thereafter, the mice were administered orally with gossypol (40 mg/kg) and/or phenformin (100 mg/kg) each day.
An increase or decrease in the body weight was checked each day, and when a mouse whose body weight decreased by 15 wt % compared to the body weight before the start of the experiment, the mouse was euthanized according to the approved protocol. […]

[3] = system: U87 neurosphere cells; experiment: Analysis of formation of neurospheres; type: cell-based; settings: 1 μM gossypol, 10 μM phenformin or mixture, 3 weeks, FIG. 3
Protocol: U87 cells were cultured in DMEM/F-12 medium containing 2 wt % 1×B27, 0.02 wt % bFGF (20 ng/ml), 0.02 wt % EGF (20 ng/ml) and 50 U/ml penicillin-[…] (100×, Gibco, Invitrogen Korea, Seoul, South Korea) to form tumor spheres. Next, the cells were seeded onto a 96-well plate at a density of 10 cells/well and treated with each of 1 μM gossypol, 10 μM phenformin and a mixture of 1 μM gossypol and 10 μM phenformin. Then, the cells were cultured at 37° C. for 3 weeks.
In FIG. 4, the percent change in the radius of the neurospheres is expressed as the percentage of the average radius of the neurospheres after each treatment relative to the average radius of the neurospheres seeded onto the 96-well plate, and in FIG. 5, the degree of neurosphere formation is expressed as the percentage of the number of the neurosphere cells after each treatment relative to the number of the neurosphere cells seeded onto the 96-well plate.

SMILES	growth of the cells (MTT assay) [1]	degree of occurrence of brain cancer (bioluminescence signal) [2]	size of neurosphere cells / presence in cell photographs [3]
Cc1cc2c(C(C)C)c(O)c(O)c(C=O)c2c(O)c1-c1c(C)cc2c(C(C)C)c(O)c(O)c(C=O)c2c1O [gossypol]	growth of the cells was inhibited	fluorescence was observed	the size of the neurosphere cells decreased
NC(N)=N/C(N)=N/CCc1ccccc1 [phenformin]		fluorescence was observed	the size of the neurosphere cells decreased

— patent publication US10646460B2, “Pharmaceutical composition for inhibiting growth of cancer stem cells, containing aldehyde inhibitor and biguanide-based compound” (NATIONAL CANCER CENTER, priority 2015, dated 2020)
